Species: Rattus norvegicus
Test: Open TG-GATES - Regimen: Single
Format: toxicity, organism-based, Sprague-Dawley
Design: regimen Single, gender Male, age 6 weeks
Details: in vivo, po, 1000 mg/kg, route gavage, dose level High; for APTT / Bas / Eos / Fbg / Hb / Ht / Lym / MCH / MCHC / MCV / Mono / Neu / PT / Plat / RBC / Ret / WBC: tissue Blood; for KIDNEY_L / KIDNEY_R / KIDNEY_TOTAL: tissue Kidney; for LIVER: tissue Liver; for A/G / ALP / ALT / AST / BUN / CRE / Ca / Cl / DBIL / GLC / IP / LDH / Na / PL / RALB / TBIL / TC / TG / TP / gamma-GTP: tissue Plasma

## NC(N)=Nc1nc(CSCCC(N)=NS(N)(=O)=O)cs1 [FAMOTIDINE]
3 h
  TERMINAL_BW: 216.4 g
  APTT: 18.8 s
  Bas: 0%
  Eos: 1%
  Fbg: 209.8 mg/dL
  Hb: 12.9 g/dL
  Ht: 37.1%
  Lym: 80.8%
  MCH: 20.8 pg
  MCHC: 34.8%
  MCV: 59.8 fL
  Mono: 2.8%
  Neu: 14%
  PT: 12.6 s
  Plat: 124.2 x10_4/uL
  RBC: 620.2 x10_4/ul
  Ret: 7.6%
  WBC: 90.8 x10_2/uL
  KIDNEY_L: 1 g
  KIDNEY_R: 1 g
  KIDNEY_TOTAL: 1.9 g
  LIVER: 10.2 g
  A/G: 1.6
  ALP: 873.2 IU/L
  ALT: 35.6 IU/L
  AST: 66.6 IU/L
  BUN: 9.4 mg/dL
  CRE: 0.4 mg/dL
  Ca: 10.7 mg/dL
  Cl: 103.4 meq/L
  DBIL: 0.07 mg/dL
  GLC: 194.4 mg/dL
  IP: 9 mg/dL
  LDH: 188.8 IU/L
  Na: 140 meq/L
  PL: 149.4 mg/dL
  RALB: 3.3 g/dL
  TBIL: 0.1 mg/dL
  TC: 81.2 mg/dL
  TG: 51.8 mg/dL
  TP: 5.3 g/dL
  gamma-GTP: 1.2 IU/L
6 h
  TERMINAL_BW: 212.4 g
  APTT: 20.5 s
  Bas: 0%
  Eos: 1%
  Fbg: 217.8 mg/dL
  Hb: 13.4 g/dL
  Ht: 37.7%
  Lym: 74%
  MCH: 21.7 pg
  MCHC: 35.4%
  MCV: 61.2 fL
  Mono: 2.8%
  Neu: 20.6%
  PT: 12.5 s
  Plat: 112.6 x10_4/uL
  RBC: 617 x10_4/ul
  Ret: 6.9%
  WBC: 73.8 x10_2/uL
  KIDNEY_L: 1 g
  KIDNEY_R: 1 g
  KIDNEY_TOTAL: 1.9 g
  LIVER: 9 g
  A/G: 1.6
  ALP: 885.4 IU/L
  ALT: 31.8 IU/L
  AST: 65.8 IU/L
  BUN: 8.6 mg/dL
  CRE: 0.4 mg/dL
  Ca: 10.6 mg/dL
  Cl: 104 meq/L
  DBIL: 0.072 mg/dL
  GLC: 192.4 mg/dL
  IP: 8.9 mg/dL
  LDH: 204.2 IU/L
  Na: 141 meq/L
  PL: 140.4 mg/dL
  RALB: 3.4 g/dL
  TBIL: 0.1 mg/dL
  TC: 73 mg/dL
  TG: 50.8 mg/dL
  TP: 5.5 g/dL
  gamma-GTP: 1.4 IU/L
9 h
  TERMINAL_BW: 211.3 g
  APTT: 16.7 s
  Bas: 0%
  Eos: 0.8%
  Fbg: 222.2 mg/dL
  Hb: 13.1 g/dL
  Ht: 36.5%
  Lym: 78%
  MCH: 22 pg
  MCHC: 35.9%
  MCV: 61.4 fL
  Mono: 2.4%
  Neu: 17%
  PT: 12.4 s
  Plat: 112.4 x10_4/uL
  RBC: 594.2 x10_4/ul
  Ret: 7.3%
  WBC: 68.5 x10_2/uL
  KIDNEY_L: 1 g
  KIDNEY_R: 1 g
  KIDNEY_TOTAL: 1.9 g
  LIVER: 8.6 g
  A/G: 1.6
  ALP: 861.4 IU/L
  ALT: 28 IU/L
  AST: 59.8 IU/L
  BUN: 9.8 mg/dL
  CRE: 0.4 mg/dL
  Ca: 10.3 mg/dL
  Cl: 103.8 meq/L
  DBIL: 0.052 mg/dL
  GLC: 205.6 mg/dL
  IP: 9 mg/dL
  LDH: 150 IU/L
  Na: 140 meq/L
  PL: 151.4 mg/dL
  RALB: 3.3 g/dL
  TBIL: 0.1 mg/dL
  TC: 85.2 mg/dL
  TG: 27.2 mg/dL
  TP: 5.4 g/dL
  gamma-GTP: 0.8 IU/L
24 h
  TERMINAL_BW: 223.1 g
  APTT: 22.2 s
  Bas: 0%
  Eos: 1%
  Fbg: 218.4 mg/dL
  Hb: 13.3 g/dL
  Ht: 37.1%
  Lym: 77.2%
  MCH: 21.8 pg
  MCHC: 35.9%
  MCV: 60.7 fL
  Mono: 2.8%
  Neu: 17.2%
  PT: 12.3 s
  Plat: 129.4 x10_4/uL
  RBC: 612.2 x10_4/ul
  Ret: 5.8%
  WBC: 77.3 x10_2/uL
  KIDNEY_L: 1 g
  KIDNEY_R: 1 g
  KIDNEY_TOTAL: 2.1 g
  LIVER: 9.6 g
  A/G: 1.6
  ALP: 1062.2 IU/L
  ALT: 39 IU/L
  AST: 65.4 IU/L
  BUN: 14.4 mg/dL
  CRE: 0.4 mg/dL
  Ca: 10.5 mg/dL
  Cl: 102.6 meq/L
  DBIL: 0.078 mg/dL
  GLC: 199.6 mg/dL
  IP: 8.2 mg/dL
  LDH: 165 IU/L
  Na: 140.2 meq/L
  PL: 137.6 mg/dL
  RALB: 3.3 g/dL
  TBIL: 0.1 mg/dL
  TC: 76.2 mg/dL
  TG: 67.4 mg/dL
  TP: 5.5 g/dL
  gamma-GTP: 1 IU/L

Source: ChEMBL document CHEMBL3885861, “Open TG-GATES”
